This note sets out measurements from ChEMBL document CHEMBL1138221, “Synthesis and evaluation of multisubstrate bicyclic pyrimidine nucleoside inhibitors of human thymidine phosphorylase” (J Med Chem, 2006).

The term half-life denotes the time needed for the level to fall by half in the phase considered. A lower half-life goes with fast loss.

The data set is described as follows: Stability in acidic buffer at pH 1.0 in 37 degC. Format: physicochemical. To be noted: for Stability: buffer.

With `Cc1cn([C@@H]2O[C@H](CO)[C@H]3C[C@H](CP(=O)(O)O)O[C@H]32)c(=O)[nH]c1=O`, the Stability result was “Stable”.

Turning to `Cc1cn([C@@H]2O[C@H](CO)[C@H]3C[C@@H](CP(=O)(O)O)O[C@H]32)c(=O)[nH]c1=O`, the Stability result is recorded as “Stable”.

For `Cc1cn([C@@H]2O[C@H](CO)[C@H]3O[C@@H](CP(=O)(O)O)O[C@H]32)c(=O)[nH]c1=O`, the half-life (acidic buffer) is 98 h.

`Cc1cn([C@@H]2O[C@H](CO)[C@H]3O[C@@H](CP(=O)(O)O)C[C@H]32)c(=O)[nH]c1=O`: the Stability result is reported as “Stable”.
